For this test, the system named is participants with SSc-RP. In words: SHAQ - Visual Analog Scale - Intestinal Problems. In kind it is in vivo, human. On the set-up: Visual Analog Scale-Intestinal Problems, In Clinic Visit (Day 12), Mean / Visual Analog Scale-Intestinal Problems, In Clinic Visit (Day 12), Median / Visual Analog Scale-Intestinal Problems, Change from Baseline, Mean / Visual Analog Scale-Intestinal Problems, Change from Baseline, Median / SHAQ Visual Analogue Scale - Intestinal Problems, In-Clinic Visit (Day 12), Median: scale not given here. The text has this: The standard, validated, patient reported outcome measures tool for SSc patients, the Scleroderma Health Assessment Questionnaire (SHAQ), will be used to assess the participant qualify of life. Details are attached in the Appendix. The participant quality of life will be scored, and a disability index calculated for each questionnaire completed by the patient at Screening and each in-clinic visit. The absolute change in participant quality of life from baseline to the end of each dosing period will be calculated similar to frequency data as before.
The standard, validated, patient reported outcome measures tool for SSc patients, the SHAQ, was collected at the time points specified in the study schedules (FIG. 2 and FIGS. 4A and 4B) to assess the participant's quality of life. The SHAQ included a Raynaud's VAS that will also be reported separately.

Where [1] appears, read: Modified ITT Population-Part A, Day 12, dose cilnidipine 10 mg, tadalafil 5 mg, alone or combined as labelled.
The mark [2] stands for this setting: Tadalafil 5 mg, SSc patients, PP, Part A.

As for `CN1CC(=O)N2[C@H](c3ccc4c(c3)OCO4)c3[nH]c4ccccc4c3C[C@@H]2C1=O` [Tadalafil], under setting [1], the “Visual Analog Scale-Intestinal Problems, Change from Baseline, Median” value worked out at 0.000 and the “Visual Analog Scale-Intestinal Problems, Percent Change from Baseline, Median” value was found to be 0.00%. Moreover, under setting [2], the “SHAQ VAS Intestinal Problems, Change from Baseline, Max” value worked out at 1.80; the “SHAQ VAS Intestinal Problems, Change from Baseline, Median” value worked out at 0.000; the “SHAQ VAS Intestinal Problems, Change from Baseline, Min” value was −2.30,; the “SHAQ VAS Intestinal Problems, Change from Baseline, Q1” value is reported as −1.150,. Also, under setting [2], the “SHAQ VAS Intestinal Problems, Change from Baseline, Q3” value is reported as 0.900; the “SHAQ VAS Intestinal Problems, Day 12, Max” value was found to be 9.20; the “SHAQ VAS Intestinal Problems, Day 12, Mean” value is reported as 3.025; the “SHAQ VAS Intestinal Problems, Day 12, Median” value amounted to 1.450. For the same compound, under setting [2], the “SHAQ VAS Intestinal Problems, Day 12, Min” value is 0.00,; the “SHAQ VAS Intestinal Problems, Day 12, Q1” value was 0.050,; the “SHAQ VAS Intestinal Problems, Day 12, Q3” value is 6.000; the “SHAQ VAS Intestinal Problems, Percent Change from Baseline, Max” value amounted to 24.3. For the same compound, under setting [2], the “SHAQ VAS Intestinal Problems, Percent Change from Baseline, Mean” value was −6.92; the “SHAQ VAS Intestinal Problems, Percent Change from Baseline, Median” value turned out to be 0.00; the “SHAQ VAS Intestinal Problems, Percent Change from Baseline, Min” value is given as −45.1,; the “SHAQ VAS Intestinal Problems, Percent Change from Baseline, Q1” value is reported as −45.10,. The “SHAQ VAS Intestinal Problems, Percent Change from Baseline, Q3” value under setting [2] was 24.32.

For the origin of these results see patent US20240358692A1, “TREATMENT OF SCLERODERMA” (Aisa Pharma, Inc., priority 2023, published 2024).
